One experiment concerns the target T1, TRPA1 (Mus musculus, UniProt Q8BLA8).
T1 construct: expressed in transfected cells; host or cells: HEK293
The experiment can be described thus: IonWorks Barracuda (IWB) automated patch clamp detection of TRPA1 inhibitory activity. The note with it: for IC50 / pIC50: automated patch clamp (IWB); for IC50: HEK293 cells stably expressing TRPA1, AITC-induced current at +100 mV, read-out: IC50 (μM) on TRPA1 in the patch clamp detection test; for pIC50: read-out: IC50 on TRPA1. It is filed as cell-based, mouse (mTRPA1). On the procedure: The inhibitory activity of some compounds in the Examples of present invention on transient receptor potential channel protein TRPA1 was tested in this example. The compound of formula A (WO2010075353) was used as a positive control compound: […]
IonWorks Barracuda (IWB) automated patch clamp detection was used as test method: HEK293 cells stably expressing TRPA1 were placed in DMEM medium containing 15 μg/mL Blasticidin S HCl, 200 μg/mL Hygromycin B and 10% FBS in the T175 culture flask, and cultured in 37° C., 5% CO2 incubator. When the cell density reached about 80%, the culture medium was removed, rinsed with phosphate buffered saline (PBS) without calcium and magnesium. 3 mL of Trypsin was added to digest for 2 min, 7 mL of culture medium was added to terminate the digestion. The cells were collected to 15 mL centrifuge tube and centrifuged at 800 rpm for 3 min. After the supernatant was removed, the cells were added to appropriate volume of extracellular fluid for re-suspending, and the cell density was controlled at 2-3×10^6/mL for IWB experiment. Extracellular fluid formulation (in mM): 140 NaCl, 5 KCl, 1 MgCl2, 10 HEPES, 0.5 EGTA, 10 Glucose (pH 7.4); intracellular fluid formulation (in mM): 140 CsCl, 10 HEPES, 5 EGTA, 0.1 CaCl2, 1 MgCl2 (pH 7.2). 28 mg/mL of amphotericin B was freshly prepared with DMSO on the day of experiment, and then final concentration of 0.1 mg/mL was prepared with intracellular fluid.
Population patch clamp (PPC) plate was used in IWB experiment. The entire detection process was automatically carried out by the instrument. Extracellular fluid was added into 384 wells of PPC plate, and 6 µL of the intracellular fluid was added into plenum (under the PPC plate), 6 µL of cell fluid was added for sealing test, and finally the intracellular fluid in plenum was replaced with amphotericin B-containing intracellular fluid to establish a whole-cell recording mode after perforating sealed cells. The sampling frequency for recording TPRA1 current was 10 kHz, the cells were clamped at 0 mV, the voltage stimulation command (channel protocol) was a ramp voltage from −100 mV to +100 mV for 300 ms. This voltage stimulation was applied every 10 s, mTRPA1 current was induced by 300 µM AITC.
Data recording and current amplitude measurement export were carried out by IWB software (version 2.5.3, Molecular Devices Corporation, Union City, Calif.). No statistics was recorded for holes with sealing impedance lower than 20 MΩ. The original current data was corrected by software for leakage reduction. TRPA1 current amplitude was measured at +100 mV. […] If IC50 value of HC030031 exceeded 3 times the average IC50 value previously obtained on each plate, it would be re-tested. The dose-effect curve of compounds and IC50 were fitted and calculated by GraphPad Prism 5.02 (GraphPad Software, San Diego, Calif.).

Another experiment addresses T2, human TRPA1 channel (Homo sapiens, UniProt O75762).
T2 construct: expressed in transfected cells; host or cells: HEK293
The experiment can be described thus: manual patch clamp detection of TRPA1 inhibitory activity. It is filed as cell-based. On the procedure: The HEK293 cell line stably expressing human TRPA1 channel was placed in T75 culture flask with DMEM medium containing 15 μg/mL Blasticidin S HCl, 200 μg/mL Hygromycin B and 10% FBS, and cultured in incubator at 37° C. and 5% CO2. When the cell density reached about 80%, the culture medium was removed, the residue was rinsed with phosphate buffered saline (PBS) without calcium and magnesium. 2 mL of trypsin was added to digest for 2 minutes, and 8 mL of culture medium was added to terminate the digestion. The cells were collected to 15 mL centrifuge tube and centrifuged at 800 rpm for 3 min. After the supernatant was removed, an appropriate volume of extracellular fluid was added to re-suspend the cells.
In manual patch clamp detection, HEKA system (Patch Master software) was used together with EPC-10 amplifier to record the whole cell current of TRPA1 stably transfected cell line at room temperature. intracellular fluid formulation for whole cell recording was as follows (mM): 140 CsCl, 10 HEPES, 5 EGTA, 0.1 CaCl2, 1 MgCl2 (pH 7.2, osmotic pressure 295-300 mOsm); Ca^2+-free extracellular fluid formulation for recording was as follows (mM): 140 NaCl, 5 KCl, 0.5 EGTA, 1 MgCl2, 10 Glucose, 10 HEPES (pH 7.4, osmotic pressure 300-310 mOsm). Glass microelectrode resistance used for patch clamp recording was 2-4 MΩ, the sampling frequency was 10 kHz, the filter frequency was 2.9 kHz, the cell clamp was 0 mV, and the voltage stimulation command (channel protocol) was a linear voltage from −100 mV to +100 mV for 300 ms, then restored to 0 mV clamping potential. The recording was performed every 2 s. The hTRPA1 current was induced by 100 μM AITC. To ensure the accuracy of current recording, the series resistance was used for 60% compensation during recording.
Data recording and current amplitude measurement export were completed by Patch Master software. Cells with sealing impedance lower than 500 MΩ, w were not included in the statistics. The original current data were corrected by software for leakage reduction, and the hTRPA1 current amplitude was measured at +100 mV. The compound dose-effect curve and IC50 were fitted and calculated by GraphPad Prism 5.02 (GraphPad Software, San Diego, Calif.).

For experiment [1], the system named is C57 mice, hot plate pain model. The experiment can be described thus: mice hot plate pain model. It is filed as in vivo, mouse. The note with it: 10 mg/kg intraperitoneal, hot plate 55±0.1° C., within 60 minutes. On the procedure:
SPF-grade C57 male mice were placed at hot plate with constant 55±0.1° C. […] If the pain reaction of mice was observed, the mice were taken out immediately to prevent mice from scalding. […] The test compounds were freshly prepared on the day of administration. 0.9% NaCl physiological saline solution was prepared as solvent for later use. Appropriate amount of test compounds were added into required volume of physiological saline and fully suspended, and the concentration of the drug compound in preparation was 1 mg/ml. The standard volume of administration to mice was 10 ml/kg (or 0.1 ml/10 g). […] The administration volume was 10 ml/kg. […] Hot plate observation index: the reaction time of mice on the hot plate at 55±0.1° C. (Time latency). Measurement and recording were conducted at 3 h before administration and 15 min, 30 min, and 60 min after administration. Maximum possible effect (MPE) % was used to evaluate analgesic effect of each compound, i.e., MPE %=[(Post drug latency-baseline latency)/(30-baseline latency)]×100. MPE % at different time points was recorded. The higher the value of MPE % was, the stronger the analgesic effect of the compound was.

Experiment [2] relates to C57BL/6 mice, formalin pain model. The experiment can be described thus: mice formalin pain model (Example 44). It is filed as in vivo, mouse. The conditions noted are these: 20 mg/kg intraperitoneal, phase I (0-10 min) and phase II (10-60 min), vs saline group. On the procedure: Before the start of experiment, the mice were allowed to adapt to the experimental environment for 72 h without fasting. The test drug was administrated by intraperitoneal injection at a dose of 20 mg/kg, and then the mice were placed in a transparent, ventilated plexiglass cylinder for 1 h, and then 20 μl of 4% formalin solution was injected into the left hind plantar of mice of each group by microinjector. The claw pain response of mice was real-time recorded by miniature camera. The number of times of lifting (1 min/time), shaking (2 min/time), and licking (3 min/time) left claw and the time length of licking left claw were used as indicators of pain response, the cumulative scoring and licking time in two stages of 0-10 min (phase I, acute pain phase) and 10-60 min (phase II, inflammatory pain phase) were observed and recorded, and the statistical analysis was conducted.

For experiment [3], the system named is ICR mice, acetic acid writhing pain model. Nature of the experiment: mice acetic acid writhing pain model. The conditions noted are these: 10 mg/kg by gavage, within 30 min; saline group 49 times. It is filed as in vivo, mouse. On the procedure: Male ICR mice, weighed 22-25 g, were fasted but allowed to drink water freely for 2 h before administration. All ICR mice were weighed and grouped randomly, and the number of animals in each group was >10. […] The test compound was IC-1 (the compound prepared in Example 9), and the administration dosages were 5 mg/kg and 10 mg/kg. […] When concave abdomen, stretched trunk and hind claw, and high buttocks appeared, one number point was recorded. […] After administration, the fewer visceral pains in the mice were, the stronger the analgesic effect of the compound was.

pIC50: −log10 of the molar value. Like-named read-outs stand apart in the source and are kept apart here.

The values that follow come from patent publication US20220119375A1, “3-ARYLOXY-3-ARYL-PROPYLAMINE COMPOUND AND USES THEREOF” (Zhangzhou Pien Tze Huang Pharmaceutical Co., Ltd., priority 2018, published 2022).

T1 sequence (Q8BLA8 whole entry): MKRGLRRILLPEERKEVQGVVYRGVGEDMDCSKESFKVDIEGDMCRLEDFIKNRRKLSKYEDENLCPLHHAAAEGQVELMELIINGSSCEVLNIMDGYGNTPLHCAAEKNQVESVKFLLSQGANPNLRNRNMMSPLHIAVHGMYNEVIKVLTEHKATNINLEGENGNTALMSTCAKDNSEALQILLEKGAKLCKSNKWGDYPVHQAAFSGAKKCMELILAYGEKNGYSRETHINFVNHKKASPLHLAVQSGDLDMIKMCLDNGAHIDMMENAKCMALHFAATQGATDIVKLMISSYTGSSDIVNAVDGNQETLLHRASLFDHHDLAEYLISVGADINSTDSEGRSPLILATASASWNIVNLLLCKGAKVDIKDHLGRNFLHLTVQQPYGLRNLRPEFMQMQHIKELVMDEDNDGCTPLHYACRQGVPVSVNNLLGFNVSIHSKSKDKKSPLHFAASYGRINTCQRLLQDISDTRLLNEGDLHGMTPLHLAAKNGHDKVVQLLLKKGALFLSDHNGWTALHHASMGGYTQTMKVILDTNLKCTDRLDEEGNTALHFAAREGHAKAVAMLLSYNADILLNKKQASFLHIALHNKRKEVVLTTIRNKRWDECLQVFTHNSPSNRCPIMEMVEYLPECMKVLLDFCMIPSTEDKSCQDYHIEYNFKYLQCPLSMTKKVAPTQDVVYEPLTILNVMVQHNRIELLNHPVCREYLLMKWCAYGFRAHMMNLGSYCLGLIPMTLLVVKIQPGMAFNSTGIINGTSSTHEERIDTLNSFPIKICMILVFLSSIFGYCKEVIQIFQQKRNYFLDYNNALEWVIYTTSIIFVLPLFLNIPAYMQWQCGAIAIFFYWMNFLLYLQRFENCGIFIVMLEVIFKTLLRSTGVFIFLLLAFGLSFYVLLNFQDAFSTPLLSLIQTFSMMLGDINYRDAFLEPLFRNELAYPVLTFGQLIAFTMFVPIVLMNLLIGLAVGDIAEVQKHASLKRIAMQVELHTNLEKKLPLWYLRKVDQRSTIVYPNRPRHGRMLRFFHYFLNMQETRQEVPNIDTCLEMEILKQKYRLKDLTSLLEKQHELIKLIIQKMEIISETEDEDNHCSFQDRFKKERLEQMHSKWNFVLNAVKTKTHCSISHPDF
T2 sequence (O75762 whole entry): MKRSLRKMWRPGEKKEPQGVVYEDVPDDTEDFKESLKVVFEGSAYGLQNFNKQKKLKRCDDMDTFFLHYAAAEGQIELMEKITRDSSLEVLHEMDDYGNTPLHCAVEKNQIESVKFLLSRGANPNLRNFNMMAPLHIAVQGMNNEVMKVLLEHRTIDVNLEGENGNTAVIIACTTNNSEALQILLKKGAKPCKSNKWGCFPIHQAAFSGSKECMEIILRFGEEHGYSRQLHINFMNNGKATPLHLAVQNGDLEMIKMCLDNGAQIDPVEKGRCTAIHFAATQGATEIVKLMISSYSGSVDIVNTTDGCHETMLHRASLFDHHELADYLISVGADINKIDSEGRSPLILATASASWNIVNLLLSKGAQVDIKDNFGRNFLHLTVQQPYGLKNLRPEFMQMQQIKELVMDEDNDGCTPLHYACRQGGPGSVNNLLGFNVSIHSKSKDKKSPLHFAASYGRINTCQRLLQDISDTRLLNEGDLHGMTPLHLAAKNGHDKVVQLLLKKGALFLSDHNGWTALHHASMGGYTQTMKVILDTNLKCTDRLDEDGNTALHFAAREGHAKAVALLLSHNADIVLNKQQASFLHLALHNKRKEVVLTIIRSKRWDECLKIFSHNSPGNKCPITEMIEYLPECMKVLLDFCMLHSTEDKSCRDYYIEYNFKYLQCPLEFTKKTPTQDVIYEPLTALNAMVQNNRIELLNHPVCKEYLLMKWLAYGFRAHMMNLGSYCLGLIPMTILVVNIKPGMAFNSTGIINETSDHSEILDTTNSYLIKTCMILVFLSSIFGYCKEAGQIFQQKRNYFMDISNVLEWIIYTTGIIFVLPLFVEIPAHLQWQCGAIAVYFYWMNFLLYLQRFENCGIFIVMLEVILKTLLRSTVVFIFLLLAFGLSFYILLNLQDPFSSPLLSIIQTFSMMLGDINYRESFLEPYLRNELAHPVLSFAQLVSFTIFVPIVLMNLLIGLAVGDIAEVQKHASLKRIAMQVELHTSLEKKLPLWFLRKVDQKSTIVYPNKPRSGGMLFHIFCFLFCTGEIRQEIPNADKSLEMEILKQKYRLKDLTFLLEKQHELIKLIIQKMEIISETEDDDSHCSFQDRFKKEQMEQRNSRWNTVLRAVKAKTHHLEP

With `CNCC[C@H](Oc1cccc2ccoc12)c1ccsc1` [Compound IC-2, (S)-3-(benzofuran-7-yloxy)-N-methyl-3-(thiophen-3-yl)propyl-1-amine], the IC50 at TRPA1 was in the range of 5 to 10 µM.
For the compound `CNCC[C@H](Oc1cccc2ccoc12)c1ccoc1` [Compound IC-3, (S)-3-(benzofuran-7-yloxy)-N-methyl-3-(furan-3-yl)propyl-1-amine], on TRPA1, the IC50 was in the range of 1 to 5 µM and the pIC50 is above 5.30.
Take `CNCC[C@H](Oc1cccc2ccoc12)c1ccco1` [Compound IC-4, (S)-3-(benzofuran-7-yloxy)-N-methyl-3-(furan-2-yl)propyl-1-amine]: at TRPA1, the IC50 lay within 1 to 5 µM and the pIC50 was above 5.30.
Consider `CN(C)CC[C@H](Oc1cccc2ccoc12)c1cccs1` [Compound IC-8, (S)-3-(benzofuran-7-yloxy)-N,N-dimethyl-3-(thiophen-2-yl)propyl-1-amine], for which, at TRPA1, the IC50 was in the range of 1 to 5 µM and the negative logarithm of the IC50 (pIC50) is above 5.30.
On human TRPA1 channel (HEK293 stably expressing human TRPA1, 100 μM AITC, +100 mV), `CNCC[C@H](Oc1cccc2c1CCC2)c1cccs1` [Compound IC-10, (S)-3-(2,3-dihydro-1H-inden-4-yloxy)-N-methyl-3-(2-thienyl)propyl-1-amine] showed a pIC50 of 5.95. The “ratio of IC50 of S configuration of duloxetine to IC50 of the compound, manual patch clamp” value at human TRPA1 channel (manual patch clamp) amounted to 3.9. Further, the “analgesic effect (MPE %) on hot plate” value in experiment [1] was “stronger than those of gabapentin and duloxetine”. Besides, the “the IC50 of compound C1/the IC50 of compound IC-10” value on TRPA1 (TRPA1, automated patch clamp) is “about 2.5 fold”. At TRPA1, the 50% inhibitory concentration (IC50) was in the range of 5 to 10 µM. The “analgesic activity, licking time” value in experiment [2] is listed as “almost completely inhibited licking claw behavior caused by pain”.
For `NCC[C@H](Oc1cccc2ccoc12)c1cccs1` [Compound IC-23, (S)-3-(benzofuran-7-yloxy)-3-(thiophen-2-yl) propyl-1-amine], the “analgesic effect (MPE %) on hot plate” value in experiment [1] is on record as “very potent analgesic effect”. Also, on TRPA1, the IC50 lay in the range of 1 to 5 µM and the pIC50 was above 5.30.
On to `NCC[C@H](Oc1cccc2ccoc12)c1ccoc1` [Compound IC-24, (S)-3-(benzofuran-7-yloxy)-3-(furan-3-yl)propyl-1-amine], for which, on TRPA1, the 50% inhibitory concentration (IC50) lay within 1 to 5 µM and the pIC50 is above 5.30.
In the case of `NCC[C@H](Oc1cccc2ccoc12)c1ccco1` [Compound IC-25, (S)-3-(benzofuran-7-yloxy)-3-(furan-2-yl) propyl-1-amine], on TRPA1, the IC50 fell in the range of 1 to 5 µM.
On the same count and under the same terms, under `NCC[C@H](Oc1cccc2ccoc12)c1ccsc1` [Compound IC-26, (S)-3(benzofuran-7-yloxy)-3-(thiophen-3-yl) propyl-1-amine] stands 5 to 10 µM; under `CNCC[C@H](Oc1cccc2ccoc12)c1cnco1` [Compound IC-29, (S)-3-(benzofuran-7-yloxy)-N-methyl-3-(oxazol-5-yl)propyl-1-amine], 5 to 10 µM.
Turning to `CNCC[C@H](Oc1cccc2ccccc12)c1cccs1` [Duloxetine (R configuration), Duloxetine, reference compound], on TRPA1, the IC50 fell in the range of 20 to 50 µM and the pIC50 was 4.31.
For the compound `CN1[C@H]2C[C@H](OC(=O)[C@H](CO)c3ccccc3)C[C@@H]1[C@@H](O)C2` [anisodamine, reference compound], the “number of appearance of writhing reaction” value in experiment [3] worked out at 27 times.
On the same count and under the same terms, under `COc1ccc2c(c1)c(CC(=O)O)c(C)n2C(=O)c1ccc(Cl)cc1` [indomethacin, reference compound] stands 28 times.
